Measured values taken from US7691901B2, “Carotenoid analogs or derivatives for the inhibition and amelioration of inflammation” (Cardax Pharmaceuticals Inc., priority 2004, dated 2010).

System: lipid peroxidation products
Test: Thioglycollate/Zymosan-induced peritonitis model: lipid oxidation products in peritoneal lavage by electrospray ionization tandem mass spectrometry
Format: in vivo, mice
Description: Thioglycollate/Zymosan—Induced Peritonitis Model: Wild-type mice were administered either 500 mg/kg body weight of disodium disuccinate astaxanthin (ddAst/Cardax™) in an oil emulsion vehicle, or normal saline (NS) as a negative control, by oral gavage at 24 hours intervals beginning 7 days prior to the induction of peritonitis. Peritonitis was induced experimentally as follows: mice were injected intraperitoneally with 1 ml of 4% by weight thioglycollate (Tg) broth, to induce the recruitment of proinflammatory cells to the peritoneum. Either 16 hours or 72 hours after recruitment, approximately half of the mice were injected intraperitoneally with 250 mg/kg body weight of zymosan (Z) for a further 4 hours. The mice not receiving zymosan underwent no further treatment. Peritoneal lavage was performed in control animals or animals treated with (ddAst) 16 hours post Tg injection, or 20 h following the combination of both Tg injection (16 hours) followed by Z injection (4 hours), as indicated (Tg/Z). Peritoneal lavages were performed with phosphate-buffered saline containing antioxidant (0.1 mM butylated hydroxytoluene (BHT)) and 2 mM of the metal chelator diethylenetriamine pentaacetic acid (DTPA) according to established practices in the art. The lavage suspensions were transferred to screw-capped tubes under an argon atmosphere, and immediately centrifuged at 1000 rpm in a table top microcentrifuge for 10 min at 4° C. to remove whole cells and debris. All analyses of lipid peroxidation products was performed on cell-free lavage supernatants. Cell pellets were resuspended in phosphate-buffered saline containing 0.1 mM BHT and 0.1 mM DTPA, and differential cell counts (macrophages, monocytes, eosinophils, lymphocytes, neutrophils, and erythrocytes) were performed on cytospun preparations of isolated cells according to established procedures in the art.
Electrospray ionization tandem mass spectrometry was used to simultaneously quantify individual molecular species of HETEs, HPETEs, the prostaglandin PGF2α, F2-isoprostanoids, hydroxy- and hydroperoxy-octadecadienoic acids (H(P)ODEs), and their precursors, arachidonic acid (AA) and linoleic acid (LA). Additionally, the molar ratios of o-tyrosine (oY/F). were measured.

[1] = 72 Hour Thioglycollate/4 Hour Zymosan, 500 mg/kg oral gavage, P-VALUE 0.772 NP
[2] = 72 Hour Thioglycollate/4 Hour Zymosan, 500 mg/kg oral gavage, P-VALUE 0.862 NP
[3] = 72 Hour Thioglycollate/4 Hour Zymosan
[4] = 72 Hour Thioglycollate, 500 mg/kg oral gavage, P-VALUE 0.117
[5] = 72 Hour Thioglycollate, 500 mg/kg oral gavage, P-VALUE 0.275
[6] = 72 Hour Thioglycollate, 500 mg/kg oral gavage, P-VALUE 0.325 NP
[7] = 72 Hour Thioglycollate, 500 mg/kg oral gavage, P-VALUE 0.349
[8] = 72 Hour Thioglycollate, 500 mg/kg oral gavage, P-VALUE 0.393
[9] = 72 Hour Thioglycollate, 500 mg/kg oral gavage, P-VALUE 0.512
[10] = 72 Hour Thioglycollate, 500 mg/kg oral gavage, P-VALUE 0.524 NP
[11] = 72 Hour Thioglycollate, 500 mg/kg oral gavage, P-VALUE 0.542
[12] = 72 Hour Thioglycollate, 500 mg/kg oral gavage, P-VALUE 0.603 NP
[13] = 72 Hour Thioglycollate, 500 mg/kg oral gavage, P-VALUE 0.726
[14] = 72 Hour Thioglycollate, 500 mg/kg oral gavage, P-VALUE 0.741
[15] = 72 Hour Thioglycollate, 500 mg/kg oral gavage, P-VALUE 0.793
[16] = 72 Hour Thioglycollate, 500 mg/kg oral gavage, P-VALUE 0.862 NP
[17] = 72 Hour Thioglycollate, 500 mg/kg oral gavage, P-VALUE 0.968
[18] = 16 hours Tg/4 hour Z, 500 mg/kg oral gavage
[19] = 16 hours Tg, 500 mg/kg oral gavage
[20] = 72 hours Tg/4 hour Z, 500 mg/kg oral gavage
[21] = Baseline, 500 mg/kg oral gavage, P-VALUE 0.081 NP
[22] = Baseline, 500 mg/kg oral gavage, P-VALUE 0.158 NP
[23] = Baseline, 500 mg/kg oral gavage, P-VALUE 0.271
[24] = Baseline, 500 mg/kg oral gavage, P-VALUE 0.290
[25] = Baseline, 500 mg/kg oral gavage, P-VALUE 0.298 NP
[26] = Baseline, 500 mg/kg oral gavage, P-VALUE 0.302
[27] = Baseline, 500 mg/kg oral gavage, P-VALUE 0.391
[28] = Baseline, 500 mg/kg oral gavage, P-VALUE 0.418
[29] = Baseline, 500 mg/kg oral gavage, P-VALUE 0.471 NP
[30] = Baseline, 500 mg/kg oral gavage, P-VALUE 0.810 NP
[31] = Baseline, 500 mg/kg oral gavage, P-VALUE 0.843
[32] = Baseline, 500 mg/kg oral gavage, P-VALUE 0.920
[33] = Baseline, 500 mg/kg oral gavage, P-VALUE 1.000 NP

## CC1=C(/C=C/C(C)=C/C=C/C(C)=C/C=C/C=C(C)/C=C/C=C(C)/C=C/C2=C(C)C(=O)C(OC(=O)CCC(=O)O)CC2(C)C)C(C)(C)CC(OC(=O)CCC(=O)O)C1=O (stereo not shown) [Cardax, disodium disuccinate astaxanthin]
[1]
  9-HODE MEAN: 4.747 pmol
  9-HODE MEDIAN: 3.683 pmol
[2]
  11-HETE MEAN: 0.837 pmol
  11-HETE MEDIAN: 0.703 pmol
[3]
  5-oxo-ETE (pmol), MEAN: 0.148 pmol
  5-oxo-ETE (ratio), MEAN: 0.063 ratio
  8-iso-F2a (pmol), MEAN: 0.057 pmol
  8-iso-F2a/AA (ratio), MEAN: 0.017 ratio
  5-oxo-ETE (pmol), MEDIAN: 0.116 pmol
  5-oxo-ETE (ratio), MEDIAN: 0.048 ratio
  8-iso-F2a (pmol), MEDIAN: 0.037 pmol
  8-iso-F2a/AA (ratio), MEDIAN: 0.011 ratio
[4]
  9-HETE MEAN: 0.274 pmol
  9-HETE MEDIAN: 0.299 pmol
[5]
  9-HODE/LA (ratio) MEAN: 0.180
  9-HODE/LA (ratio) MEDIAN: 0.109
[6]
  5-HETE MEAN: 0.129 pmol
  5-HETE MEDIAN: 0.082 pmol
[7]
  9-HODE MEAN: 1.831 pmol
  9-HODE MEDIAN: 1.585 pmol
[8]
  13-HODE MEAN: 5.552 pmol
  13-HODE MEDIAN: 5.520 pmol
[9]
  11-HETE/AA (ratio) MEAN: 0.151
  11-HETE/AA (ratio) MEDIAN: 0.132
[10]
  Arachidonic Acid MEAN: 836.27 pmol
  Arachidonic Acid MEDIAN: 758.43 pmol
[11]
  PGF2a/AA (ratio) MEAN: 0.030
  PGF2a/AA (ratio) MEDIAN: 0.033
[12]
  Linoleic Acid MEAN: 14242 pmol
  Linoleic Acid MEDIAN: 10076 pmol
[13]
  Prostaglandin F2α (PGF2α) MEAN: 0.021 pmol
  Prostaglandin F2α (PGF2α) MEDIAN: 0.018 pmol
[14]
  11-HETE MEAN: 0.112 pmol
  11-HETE MEDIAN: 0.100 pmol
[15]
  5-HETE/AA (ratio) MEAN: 0.170
  5-HETE/AA (ratio) MEDIAN: 0.082
[16]
  9-HETE/AA (ratio) MEAN: 0.348
  9-HETE/AA (ratio) MEDIAN: 0.241
[17]
  13-HODE/AA (ratio) MEAN: 0.504
  13-HODE/AA (ratio) MEDIAN: 0.363
72 Hour Thioglycollate
  5-oxo-ETE (pmol), MEAN: 0.026 pmol
  5-oxo-ETE (ratio), MEAN: 0.021 ratio
  8-iso-F2a (pmol), MEAN: 0.010 pmol
  8-iso-F2a/AA (ratio), MEAN: 0.016 ratio
  5-oxo-ETE (pmol), MEDIAN: 0.000 pmol
  5-oxo-ETE (ratio), MEDIAN: 0.000 ratio
  8-iso-F2a (pmol), MEDIAN: 0.000 pmol
  8-iso-F2a/AA (ratio), MEDIAN: 0.000 ratio
72 Tg/4 hour Z, 500 mg/kg oral gavage
  5-oxo-EET (pmol) compared to NS: significant decrease
[18]
  8-iso-F2α (pmol) compared to NS: significant decrease
  8-iso-F2α/AA ratio compared to NS: significant decrease
[19]
  AA (pmol) compared to NS: significantly higher
  LA (pmol) compared to NS: significantly higher
[20]
  5-HETE/AA ratio compared to NS: significant decrease
  5-oxo-EET (ratio) compared to NS: significant decrease
  9-HETE/AA ratio compared to NS: significant decrease
  9-HODE/LA (ratio) compared to NS: significant decrease
  11-HETE/AA ratio compared to NS: significant decrease
  AA (pmol) compared to NS: significantly higher
  LA (pmol) compared to NS: significantly higher
  PGF2α/AA ratio compared to NS: significant decrease
[21]
  PGF2a/AA (ratio) MEAN: 0.033
  PGF2a/AA (ratio) MEDIAN: 0.000
[22]
  Prostaglandin F2α (PGF2α) MEAN: 0.036 pmol
  Prostaglandin F2α (PGF2α) MEDIAN: 0.000 pmol
[23]
  13-HODE MEAN: 26.618 pmol
  13-HODE MEDIAN: 23.554 pmol
[24]
  11-HETE/AA (ratio) MEAN: 0.219
  11-HETE/AA (ratio) MEDIAN: 0.218
[25]
  9-HODE/LA (ratio) MEAN: 0.212
  9-HODE/LA (ratio) MEDIAN: 0.168
[26]
  5-HETE/AA (ratio) MEAN: 0.129
  5-HETE/AA (ratio) MEDIAN: 0.145
[27]
  13-HODE/AA (ratio) MEAN: 2.976
  13-HODE/AA (ratio) MEDIAN: 2.848
[28]
  9-HETE/AA (ratio) MEAN: 0.879
  9-HETE/AA (ratio) MEDIAN: 0.887
[29]
  5-HETE MEAN: 0.096 pmol
  5-HETE MEDIAN: 0.047 pmol
  11-HETE MEAN: 0.121 pmol
  11-HETE MEDIAN: 0.073 pmol
[30]
  9-HETE MEAN: 0.510 pmol
  9-HETE MEDIAN: 0.272 pmol
[31]
  Linoleic Acid MEAN: 8239.5 pmol
  Linoleic Acid MEDIAN: 5875.6 pmol
[32]
  9-HODE MEAN: 1.791 pmol
  9-HODE MEDIAN: 1.579 pmol
[33]
  Arachidonic Acid MEAN: 587.46 pmol
  Arachidonic Acid MEDIAN: 323.65 pmol
Baseline
  5-oxo-ETE (pmol), MEAN: 0.020 pmol
  5-oxo-ETE (ratio), MEAN: 0.033 ratio
  8-iso-F2a (pmol), MEAN: 0.156 pmol
  8-iso-F2a/AA (ratio), MEAN: 0.307 ratio
  5-oxo-ETE (pmol), MEDIAN: 0.000 pmol
  5-oxo-ETE (ratio), MEDIAN: 0.000 ratio
  8-iso-F2a (pmol), MEDIAN: 0.175 pmol
  8-iso-F2a/AA (ratio), MEDIAN: 0.266 ratio
